Marks after values point to notes of the source that are not given here. Residues, ends and D or L forms follow the SMILES beside them.
Experiments:
[1] = system: rats; experiment: Chronic toxicity, 6 months; format: in vivo; conditions: intramuscularly daily during 6 months, 1 μg/kg, 0.1 mg/kg, 1 mg/kg
Experimental: The animals were exposed daily to a single administration of the drug intramuscularly in doses 1 μg/kg, 0.1 mg/kg, 1 mg/kg in 0.5 ml of sodium chloride solution during 6 months. Behaviour of the animals, their rations and water consumption, the state of their hair integument and mucous membranes were registered. The animals were weighed daily during the first 3 months of the experiment and then once a month. Haematological and biochemical studies were carried out 3 months after the onset of drug administration and upon experiment completion. Functions of the cardiovascular system, liver, pancreas, kidneys, and adrenal glands were assessed. Upon the end of drug administration some animals were subjected to pathomorphological examination for the purpose of estimating the condition of various sections of the brain and spinal marrow, heart, aorta, lungs, liver, kidneys, organs of the endocrine and immune systems.

[2] = system: Drosophila melanogaster of HEM strain; experiment: Luminol-dependent tissue chemoluminescence in flies of HEM strain; format: in vivo; conditions: 0.00001% of culture medium weight
Source text: L-Ala-L-Glu-L-Asp-Gly tetrapeptide (SEQ ID NO: 1) was applied in Drosophila melanogaster larvae of the 2nd age of HEM strain selected for a high ageing rate (20). HEM strain is characterised by the unique dynamics of embryonic mortality, which consists in an increased frequency of early embryonic lethal outcomes from 65% on the 1st day of egg-laying up to 95% on the 4th day, in a reduced average life span (29 days), and in a raised intensity of lipid peroxide oxidation.
L-Ala-L-Glu-L-Asp-Gly tetrapeptide (SEQ ID NO: 1) was added in proportion 0.00001% of the culture medium weight, which was an extremely low dose. The doses described in literature on the influence of various substances on Drosophila melanogaster usually ranged from 0.001 to 0.01%.
Biochemical parameters were studied on 14-day old flies. Among them the activity of catalase activity and the intensity of tissue chemoluminescence were analysed (21, 22, 23). Catalase is the basic enzyme of anti-oxidation defence. […] Luminol-dependent chemoluminescence, induced by hydrogen peroxide, reflects the stage of active oxygen forms in tissues. Thus, a decrease in the chemoluminescence intensity indicates an increase in the organism ability to resist oxidative stress.

[3] = system: gastric EC-cells; experiment: Extra-pineal synthesis of melatonin: enteroendocrine and serotonin-positive cell density in stomach after epiphysectomy; format: in vivo, male Wistar rats; conditions: for NEND/1 mm^2 (density of entero-endocrine cells), Fundal / NEND/1 mm^2 (density of entero-endocrine cells), Pyloric / Nser/1 mm^2 (density of serotonin-positive cells), Pyloric: 0.5 μg subcutaneously 10 days
Experimental: The research was carried out on male Wistar rats weighing 130-140 g. The total number of the animals (23) was divided into 5 groups. The 1st group (control) included intact animals. The animals of groups 2-5 underwent epiphysectomy (EE). In 3 weeks after the surgery (on the 21st day) the animals of the 2nd and 3rd groups were subcutaneously injected with sodium chloride in dose 0.5 ml for the next 10 days. The animals of groups 4 and 5 were administered with L-Ala-L-Glu-L-Asp-Gly tetrapeptide (SEQ ID NO: 1) in dose 0.5 μg according to the same scheme.
Slaughtering of the animals and isolation of their organs were conducted from 10 a.m. to 12 noon by daylight with the use of Nembutal anaesthesia (50 mg/kg). The animals of groups 1, 2 and 4 were slaughtered in 3 days upon the final drug administration (on the 33rd day after the operation and the onset of the experiment), while the animals of groups 3 and 5-in 12 days (on the 42nd day after epiphysectomy). Examined were the main organs of the diffuse neuroendocrine system (DNES): stomach, thyroid gland, and pancreas.
The surgery—epiphysectomy—was conducted under ether anaesthesia according to the devised technique. A 1-1.5 cm long incision was made along the central line of the head. Upon the uncovering of the scull cap an aperture was drilled over the sinus confluence point by means of a hollow 0.5 cm-diameter auger, which was manufactured of a metal tube especially for the experiment. The epiphysis was extracted by means of ophthalmic forceps through the opening in the cranium. The trepanation aperture was covered with an osteal fragment. The skin incision was sewn with silk threads.
Fragments of the extracted organs were fixed for 24 hours in Buen sour liquid for optic microscopy and according to Karnovsky for electron microscopy. Material dehydration and filling it in with paraffin for optic microscopy, as well as epone mixture for ultra-structural examination were prepared according to generally accepted techniques. Paraffin sections (7 μm) were placed on a microscope slide covered with a poly-L-lysine film (Sigma). Ultra-thin sections (100 nm) prepared on LKB-7A microtome (LKB) were contrasted with uranyl acetate and plumbum citrate.
Histological and immunohistochemical examinations were carried out with a Jenamed-2 microscope (Zeiss). Electron-microscopic examination was conducted with a electronic JEM-100S microscope (JEOL).
For staining hematoxyline-eosin was applied. The total population of APUD-cytes in the pyloric and fundal stomach sections was determined according to Grimelius' histochemical silvering method (25).
Immunohistochemical exposure of enterochromophine-cells (EC-cells) was conducted by applying uniclonic antibodies of mice to serotonin (Dako, 1:15 titre). The uniclonic antibodies were identified according to avidin-biotin-peroxidase (ABP) method (Vectastain kit) in order to measure immune serum globulins of mice.
The quantitative studies were carried out by means of computer analysis system of microscopic imprints (Imstar) with the use of Morphostar and Colquant (Imstar) applied licensed computer programmes, in accordance with the basic principles of stereology and morphometry (26).
The quantitative density of enteroendocrine (END) (NEND/1 mm^2) and serotonin-positive cells (Nser/1 mm^2) was estimated in 10 visual fields. The test area (S) constituted 5 mm^2.
For the statistical processing of the acquired data the non-parametric U-criterion by Mann/Whitney was applied.

[4] = system: blood anti-oxidation defence indices; experiment: Blood anti-oxidation defence indices in patients with age-related pathology; format: in vivo; conditions: 10 μg intramuscularly daily for 10 days
Experimental: The studied pharmacological substance was administered to 14 patients (34 to 69 years old) with age-related pathology (hypertension disease, ischemic heart disease, chronic gastritis, non-insulin-dependent diabetes mellitus) and reduction of the anti-oxidation defence indices in blood.
The substance containing L-Ala-L-Glu-L-Asp-Gly tetrapeptide (SEQ ID NO: 1) was administered intramuscularly in the form of an injection solution in a single daily dose of 10 μg per injection for 10 days.

[5] = epiphysectomised rats, 3rd day upon the end of drug administration
[6] = epiphysectomised rats, 12th day upon the end of drug administration

## C[C@H](N)C(=O)N[C@@H](CCC(=O)O)C(=O)N[C@@H](CC(=O)O)C(=O)NCC(=O)O [L-Ala-L-Glu-L-Asp-Gly tetrapeptide, L-alanyl-L-glutamyl-L-aspartyl-glycine] (H-AEDG-OH)
[1]
  Pathologic alterations (general state, blood indices, intrinsic organs, cardiovascular, respiratory, liver, kidney): no pathologic alterations
  Side effects, chronic toxicity: absence of side effects
[2]; females
  Chemoluminescence: 7.9 ± 0.91 conv. unit/mg of protein
[2]; males
  Chemoluminescence: 2.03 ± 0.182 conv. unit/mg of protein
[3]; epiphysectomised rats
  Extra-pineal synthesis of serotonin and melatonin in gastric EC-cells: promotes the extra-pineal synthesis of serotonin and melatonin
[3]; [5]
  NEND/1 mm^2 (density of entero-endocrine cells), Fundal: 64 ± 5 /1 mm^2
  NEND/1 mm^2 (density of entero-endocrine cells), Pyloric: 21 ± 1 /1 mm^2
  Nser/1 mm^2 (density of serotonin-positive cells), Pyloric: 26 ± 2 /1 mm^2
[3]; [6]
  NEND/1 mm^2 (density of entero-endocrine cells), Fundal: 47 ± 9 /1 mm^2
  NEND/1 mm^2 (density of entero-endocrine cells), Pyloric: 19 ± 1 /1 mm^2
  Nser/1 mm^2 (density of serotonin-positive cells), Pyloric: 26 ± 3 /1 mm^2
[3]; within 3 days upon the end of administration, maintained for 12 days
  Effect on the epiphysectomy impact on DNES cells: complete suppression of the epiphysectomy impact
[4]; before treatment 0.26
  Activity of superoxide dismutase, After treatment: 0.61* conv. unit/mg of protein
[4]; before treatment 4.6 ± 0.3
  Products of spontaneous lipid peroxide oxidation: Schiff bases, After treatment: 2.9 ± 0.2 μM/l
[4]; before treatment 7.3 ± 0.6
  Products of spontaneous lipid peroxide oxidation: conjugated hydroperoxides, After treatment: 2.5 ± 0.2 μM/l

From patent US6727227B1, “Tetrapetide revealing geroprotective effect, pharmacological substance on its basis, and the method of its application” (Obschestvo S Ogranichennoi Otvetstven-Nostiju “Klinika …, priority 2002, dated 2004)
